Values of other authors, collected in patent publication US20230360801A1, “METHODS AND SYSTEMS OF IDENTIFYING INDIVIDUALS FOR PERIOPERATIVE NEUROCOGNITIVE DISORDER AND/OR POST-VIRAL COGNITIVE IMPAIRMENT” (Cambridge Cognition Limited, priority 2021, published 2023).

CC(C)(Oc1ccc(C(=O)c2ccc(Cl)cc2)cc1)C(=O)O [fenofibric acid]
logP: 3.9
